This is an account of results in patent US20070197453A1, “Compositions and methods for treatment of disorders of protein aggregation” (priority 2006, published 2007).

Series [1] is described as follows: Pilot in vivo studies. Conditions: data not shown.
For series [2] the following is noted: 6-18 grams/day/adult or 86-257 mg/Kg/day; reference [21]; cited from earlier work.
For series [3], the system named is Aβ. The following applies: reference [11]; cited from earlier work.
Series [4] deals with T1, Aβ42 (Homo sapiens, UniProt P05067). The series can be described thus: Plasma Aβ42 levels. The class given is in vivo, mouse. More on the design: from tissue; host or cells: plasma of TgCRND8 transgenic mice. Conditions: TgCRND8 mice following 28 days of therapy at five months of age. As for the experimental part:
(§1) Plasma and Cerebral Aβ Content. Hemi-brain samples were homogenized in a buffered sucrose solution, followed by either 0.4% diethylamine/100 mM NaCl for soluble Aβ levels or cold formic acid for the isolation of total Aβ. After neutralization, the samples were diluted and analyzed for Aβ40 and Aβ42 using commercially available kits (BIOSOURCE International). Each hemisphere was analyzed in triplicate and the mean values±SEM reported. Western blot analyses were performed on all fractions using urea gels for Aβ species analyses. Aβ was detected using 6E10 (BIOSOURCE International) and Enhanced Chemiluminenscence (Amersham).
(§2) Cerebral Aβ Content. Hemi-brain samples were homogenized in a buffered sucrose solution, followed by either 0.4% diethylamine/100 mM NaCl for soluble Aβ levels or cold formic acid for the isolation of total Aβ [22]. After neutralization the samples were diluted and analyzed for Aβ40 and Aβ42 using commercially available kits (BIOSOURCE International). Each hemisphere was analyzed in triplicate with the mean±SEM reported. Plasma was diluted and run directly on the ELISA.
Target sequence in this assay (P05067 672-713): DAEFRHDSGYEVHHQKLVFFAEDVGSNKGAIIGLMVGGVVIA

Series [5] relates to TgCRND8 mice. The series can be described thus: Survival census (Kaplan-Meier). The class given is in vivo, mouse. Conditions: compared to untreated TgCRND8 mice. As for the experimental part: Survival Census: The probability of survival was assessed by the Kaplan-Meier technique, computing the probability of survival at every occurrence of death, thus making it suitable for small sample sizes. For the analyses of survival, 35 mice were used for each treatment group. The Tarone-Ware test was used to assess effects of treatments.
Survival Census: The probability of survival was assessed by the Kaplan-Meier technique computing the probability of survival at every occurrence of death, thus making it suitable for small sample sizes. For the analyses of survival, 30 mice were used for each treatment group. The Tarone-Ware test was used to assess effects of treatments.

Series [6] has as its system TgCRND8 mice. The series can be described thus: Gliosis quantitation (GFAP astrocytes, CD68 microglia). The class given is in vivo, mouse. How it is done: Gliosis Quantitation. Five randomly selected, evenly spaced, sagittal sections were collected from paraformaldehyde-fixed and frozen hemispheres of treated and control mice. Sections were immunolabelled for astrocytes with anti-rat GFAP IgG2a (Dako; diluted 1:50) and for microglia with anti-rat CD68 IgG2b (Dako; 1:50). Digital images were captured using a Coolsnap digital camera (Photometrics, Tuscon, Ariz.) mounted to a Zeiss, Axioscope 2 Plus microscope. Images were analysed using Openlab 3.08 imaging software (Improvision, Lexington Mass.).

Series [7] has as its system TgCRND8 mice. The series can be described thus: Morris Water Maze spatial reference memory test. In kind it is in vivo, mouse. As for the experimental part: Behavioural tests: Morris Water Maze testing was performed as previously described. After non-spatial pre-training, mice underwent place discrimination training for 5 days with 4-trials per day, followed by a cued visible platform to rule out general motivational, learning deficits and motor problems, and a probe trial to evaluate memory. […] Open field test for motor activity was preformed as described previously. Duration of walking, pausing and grooming were analyzed as indices of spontaneous locomotor activity. Sensorimotor function was examined with an Economex™ accelerating rotarod (Columbus Instruments, Columbus, Ohio), as described elsewhere. The rod was set to accelerate at a rate of 0.2 r.p.m./s, from an initial, constant speed of 5 r.p.m. Latency to fall was recorded in four daily trials, conducted at 30 min intervals. All mice were trained for seven days before testing. The test day performance score for each animal was obtained by summing its latency to fall over the four trials
Behavioural tests: Behavioural analyses were performed using the Morris Water Maze test (13, 14). After pre-spatial training, mice underwent place discrimination training for 5 days with 4 trials per day, followed by a cued visible platform to rule out general motivational, learning deficits and motor problems. […] Open field test for motor activity was performed as described previously. Duration of walking, pausing, rearing and grooming were analyzed as indices of spontaneous locomotor activity.

In series [8] the test system is TgCRND8 mice. Description: Cerebral amyloid plaque burden (anti-Aβ immunostaining, image analysis). In kind it is in vivo, mouse. How it is done:
Cerebral amyloid burden. Brains were removed and one hemisphere was fixed in 4% paraformaldehyde and embedded in paraffin wax in the mid sagittal plane. To generate sets of systematic uniform random sections, 5 μm serial sections were collected across the entire hemisphere. Sets of sections at 50 μm intervals were used for analyses (10-14 sections/set). Plaques were identified after antigen retrieval with formic acid, and incubation with primary anti-Aβ antibody (Dako M-0872), followed by secondary antibody (Dako StreptABCcomplex/horseradish kit). End products were visualized with DAB and were counter-stained with luxol fast blue. Amyloid plaque burden was assessed with Leco IA-3001 image analysis software interfaced with Leica microscope and Hitachi KP-M1U CCD video camera. Openlab imaging software (Improvision, Lexington, Mass.) was then used to convert micrographs to binary images for plaque number and plaque area determinations. Vascular amyloid burden was defined as amyloid originating from or surrounding blood vessels and was analysed similarly.

The target in series [9] is T2, Aβ40 (Homo sapiens, UniProt P05067).
T2 construct: from tissue; host or cells: hemi-brain homogenate of TgCRND8 transgenic mice
T2 sequence (P05067 672-711): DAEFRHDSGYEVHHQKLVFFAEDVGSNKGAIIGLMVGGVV
The series can be described thus: Cerebral Aβ content: brain Aβ40 (ELISA kit). In kind it is in vivo, mouse. The following applies: TgCRND8 mice with pre-existing disease; 28 day treatment from 5 months of age. How it is done:
as §1, §2

Series [10] addresses T1, Aβ42. Description: Cerebral Aβ content: brain Aβ42 (ELISA kit). On the set-up: from tissue; host or cells: hemi-brain homogenate of TgCRND8 transgenic mice. The class given is in vivo, mouse. Conditions: TgCRND8 mice with pre-existing disease; 28 day treatment from 5 months of age. As for the experimental part:
as §1, §2
In general terms: In an ELISA, binding on a coated surface is turned into a signal by an enzyme label.
Target sequence in this assay (P05067 672-713 limits assumed): as the sequence (P05067 672-713) above

Series [11] concerns neurons. The following applies: cited from earlier work.
Where [12] appears, read: six month old TgCRND8 mice, 28 days of oral treatment beginning at five months of age.
The mark [13] stands for this setting: TgCRND8 mice, 4-month Prophylactic (oral from 6 weeks to 4 months of age).
Where [14] appears, read: TgCRND8 mice, 6-month Prophylactic (oral from 6 weeks to 6 months of age).
The mark [15] stands for this setting: TgCRND8 mice, oral treatment for 28 days (1 month) from 5 months of age, analysed at 6 months.

“Also recorded” adds a separate entry of the source.

`O[C@H]1[C@H](O)[C@@H](O)[C@H](O)[C@@H](O)[C@H]1O` [myo-cyclohexanehexol, 1,2,3,5/4,6-(myo-)cyclohexanehexol]: the “benefit in pilot in vivo studies” value in [1] is “no significant benefit”. Further, the toxicity result in series [2] was “no toxicity in humans or animals”. Besides, the “effectiveness in prior in vitro studies” value in [3] is “only weakly effective”.

Consider “1,2,3,4,5/6-(epi-)cyclohexanehexol [epi-cyclohexanehexol]”, for which the “Plasma Aβ42 levels” value in series [4] amounted to 1079 ± 79 pg/mL. Further, the “Kaplan Meier cumulative survival” value in series [5] is on record as “did not significantly improve survival”. In addition, the “percent brain area covered with microgliosis” value in series [6] (TgCRND8 mice) is given as “decreased the percent brain area covered with microgliosis”. In series [6] (TgCRND8 mice at six months of age), the “astrogliosis / gliosis, anti-GFAP immunostaining” value is on record as “decrease in astrogliosis”. Further, the “percent brain area covered in astrogliosis” value in series [6] (TgCRND8 mice, 4- and 6-months of age) was “decreased the percent brain area covered in astrogliosis at both 4- and 6-months of age”. For the same compound, the “Non-Tg littermate behaviour under treatment” value in series [7] (non-Tg littermates, Morris Water Maze) is “not affected”. Also, the “cognition compared to non-Tg mice” value in series [7] (prophylactic treatment, four months of age) is “significantly different from treated and untreated non-Tg mice”. Moreover, the “cognition compared to non-Tg littermates” value in series [7] (prophylactic treatment, six months of age) was “approached that of non-Tg littermates”. Moreover, in series [7] (setting [12]), the “spatial reference memory performance compared to non-Tg littermates” value was “significantly poorer than the performance of their non-Tg littermates; also recorded: remained impaired with respect to non-Tg littermates” and the “spatial reference memory performance compared to untreated TgCRND8 littermates” value is listed as “not significantly different from that of untreated TgCRND8 littermates”. In series [8] (TgCRND8 mice at six months of age, hippocampus and cerebral cortex), the “amyloid (plaque) burden, immunostaining” value was “modest effect on amyloid burden”. For the same compound, the “plaque burden (percent area of the brain covered with plaques, plaque number)” value in [8] (TgCRND8 mice with pre-existing disease, one month treatment from 5 months of age) is “no significant impact”. In [8] (setting [13]), the “Mean Plaque Size” value is recorded as 95 ± 43 μm^2 and the “Total Plaque Area” value was 65042 ± 5199 μm^2. Further, in series [8] (setting [14]), the “Mean Plaque Size” value is 370 ± 9 μm^2 and the “Total Plaque Area” value is 380456 ± 13498 μm^2. For the same compound, in [8] (setting [15]), the “Mean Plaque Size” value is given as 346 ± 6 μm^2 and the “Total Plaque Area” value worked out at 459706 ± 49966 μm^2. The “Total Plaque Count” value in series [8] (TgCRND8 mice, oral treatment for 28 days from 5 months of age, analysed at 6 months) came to 1342 ± 114. The “effect on brain Aβ40 levels” value in [9] is recorded as “no significant impact”. In addition, the “effect on brain Aβ42 levels” value in series [10] is given as “no significant impact”. The “activity against synthetic Aβ42 neurotoxicity” value in series [11] was “protects neurons from synthetic Aβ42 cytotoxicity”.
